Data on seven compounds can be found in US6610744B2, “Methods of treatment with compounds having RARα receptor specific or selective activity” (Allergan, Inc., priority 1995, dated 2003).

For one experiment, the target named is T1, RARα (Homo sapiens, UniProt P10276).
T1 construct: made in house; host or cells: Baculovirus expression (insect cell extract)
T1 sequence (P10276 1-462): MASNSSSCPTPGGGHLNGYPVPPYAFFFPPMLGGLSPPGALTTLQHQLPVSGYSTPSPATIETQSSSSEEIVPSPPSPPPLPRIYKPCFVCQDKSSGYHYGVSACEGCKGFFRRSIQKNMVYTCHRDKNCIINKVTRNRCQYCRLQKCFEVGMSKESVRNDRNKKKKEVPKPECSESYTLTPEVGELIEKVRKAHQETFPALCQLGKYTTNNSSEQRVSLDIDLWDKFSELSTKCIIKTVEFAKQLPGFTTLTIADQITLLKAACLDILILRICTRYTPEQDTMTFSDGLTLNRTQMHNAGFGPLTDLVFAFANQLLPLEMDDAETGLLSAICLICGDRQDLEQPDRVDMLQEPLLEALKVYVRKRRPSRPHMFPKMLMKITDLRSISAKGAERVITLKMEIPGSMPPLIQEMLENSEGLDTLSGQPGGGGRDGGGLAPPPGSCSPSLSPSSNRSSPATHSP
The experiment can be described thus: Ligand binding assay, RARα. As for the experimental part:
(§1) All binding assays were performed in a similar fashion. All six receptor types were derived from the expressed receptor type (RARα, β, Γ and RXRα, β, Γ) expressed in Baculovirus. Stock solutions of all compounds were prepared as 10 mM ethanol solutions and serial dilutions carried out into 1:1 DMSO; ethanol. Assay buffers consisted of the following for all six receptor assays: 8% glycerol, 120 mM KCl 8 mM Tris, 5 mM CHAPS 4 mM DTT and 0.24 mM PMSF, pH-7.4@ room temperature.
(§2) All receptor binding assays were performed in the same manner. The final assay volume was 250 μl and contained from 10-40 μg of extract protein depending on receptor being assayed along with 5 nM of [^3H] all-trans retinoic acid or 10 nM [^3H] 9-cis retinoic acid and varying concentrations of competing ligand at concentrations that ranged from 0-10^−5 M. The assays were formatted for a 96 well minitube system. Incubations were carried out at 4° C. until equilibrium was achieved. Non-specific binding was defined as that binding remaining in the presence of 1000 nM of the appropriate unlabeled retinoic acid isomer. At the end of the incubation period, 50 μl of 6.25% hydroxyapitite was added in the appropriate wash buffer. The wash buffer consisted of 100 mM KCl, 10 mM Tris and either 5 mM CHAPS (RXRα, β, Γ) or 0.5% Triton X-100 (RARα, β, Γ). The mixture was vortexed and incubated for 10 minutes at 4° C., centrifuged and the supernatant removed. The hydroxyapitite was washed three more times with the appropriate wash buffer. The receptor-ligand complex was adsorbed by the hydroxyapitite. The amount of receptor-ligand complex was determined by liquid scintillation counting of hydroxyapitite pellet.
(§3) After correcting for non-specific binding, IC50 values were determined. […] The IC50 value was determined graphically from a loglogit plot of the data. The […] were determined by application of the Cheng-Prussof equation to the IC50 values, the labeled ligand concentration and the Kd of the labeled ligand.
The results of ligand binding assay are expressed in Kd numbers. […]

A further experiment has as its target T2, RARβ (Homo sapiens, UniProt P10826).
T2 construct: made in house; host or cells: Baculovirus expression (insect cell extract)
T2 sequence (P10826 1-455): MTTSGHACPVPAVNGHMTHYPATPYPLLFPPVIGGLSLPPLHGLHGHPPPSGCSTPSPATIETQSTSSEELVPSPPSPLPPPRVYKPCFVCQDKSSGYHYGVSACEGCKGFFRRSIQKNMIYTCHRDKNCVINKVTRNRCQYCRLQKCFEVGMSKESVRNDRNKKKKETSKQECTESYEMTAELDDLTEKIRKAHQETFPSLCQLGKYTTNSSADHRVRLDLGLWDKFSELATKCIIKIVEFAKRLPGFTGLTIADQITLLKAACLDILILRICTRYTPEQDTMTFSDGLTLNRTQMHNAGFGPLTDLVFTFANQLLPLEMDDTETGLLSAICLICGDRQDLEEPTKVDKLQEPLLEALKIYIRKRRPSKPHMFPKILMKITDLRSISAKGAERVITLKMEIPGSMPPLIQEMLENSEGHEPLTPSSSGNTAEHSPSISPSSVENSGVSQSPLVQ
In words: Ligand binding assay, RARβ. How it is done:
as §1, §2, §3
(§4) The results of ligand binding assay are expressed in Kd numbers. (See Cheng et al. Biochemical Pharmacology Vol. 22 pp 3099-3108, expressly incorporated herein by reference.)

The next experiment concerns the target T3, RARΓ (Homo sapiens, UniProt P13631).
T3 construct: made in house; host or cells: Baculovirus expression (insect cell extract)
T3 sequence (P13631 1-454): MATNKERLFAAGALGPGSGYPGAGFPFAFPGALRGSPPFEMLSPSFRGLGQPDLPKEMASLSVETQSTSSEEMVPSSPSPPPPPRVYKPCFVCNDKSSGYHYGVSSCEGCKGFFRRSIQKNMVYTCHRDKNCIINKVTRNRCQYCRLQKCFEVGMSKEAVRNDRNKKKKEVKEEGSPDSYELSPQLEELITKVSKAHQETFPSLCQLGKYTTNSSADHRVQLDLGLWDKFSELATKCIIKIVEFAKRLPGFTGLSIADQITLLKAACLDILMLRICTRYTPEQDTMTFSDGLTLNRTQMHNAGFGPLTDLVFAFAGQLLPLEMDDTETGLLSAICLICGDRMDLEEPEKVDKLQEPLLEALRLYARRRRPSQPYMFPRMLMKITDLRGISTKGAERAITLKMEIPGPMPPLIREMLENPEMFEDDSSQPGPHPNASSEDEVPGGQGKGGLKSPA
In words: Ligand binding assay, RARΓ. How it is done: as §1, §2, §3, §4

For experiment [1], the system named is AML-193 cells (acute monocytic leukemia). In words: AML 193 cell culture assay (3H-thymidine incorporation). In kind it is cell-based, human. Particulars: FIG. 2; low concentrations. As for the experimental part:
All trans-retinoic acid (t-RA) (Sigma Chemicals Co., St. Louis, Mo.) was stored at −70° C. Prior to each experiment the compound was dissolved in 100% ethanol at 1 mM and diluted in culture medium immediately before use. All experiments were performed in subdued light. Controls were assayed using the same concentration of ethanol as present in the experimental plates and this concentration of diluent had no effect in either assay.
AML-193 was established from the blast cells classified as M5 Acute Monocyte Leukemia. The growth factor, […] (GM-CSF) was required to establish this cell line and growth factors are necessary for its continuous proliferation in chemically defined medium. AML-193 cells were grown and maintained in Iscove's modified Dulbecco's medium supplemented with 10% fetal bovine serum, glutamine and antibiotics with 5 μg/ml insulin (Sigma Chemical Co.) and 2 ng/ml rh GM-CSF (R and D Systems). The cells were diluted to a concentration of 3×10^5/ml twice a week.
AML-193 cells were plated in a 96 well round bottom microtiter plate (Costar) at a density of 1,000 cells/well. To appropriate wells, retinoid test compounds were added at the final concentrations indicated for a final volume of 150 μl/well. The plates were incubated for 96 hours at 37° C. in a humidified atmosphere of 5% CO2 in air. Subsequently, 1 μCi of [5′-^3H]-thymidine (Amersham, U.K., 43 Ci/mmol specific activity) in 25 μl culture medium was added to each well and the cells were incubated for an additional 6 hours.
The cell lines were then processed as follows: the cellular DNA was precipitated with 10% trichloroacetic acid onto glass fiber filter mats using a SKATRON multi-well cell harvester (Skatron Instruments, Sterling Va.). Radioactivity incorporated into DNA, as a direct measurement of cell growth, was measured by liquid scintillation counting. The numbers represent the mean disintegrations per minute of incorporated thymidine from triplicate wells±SEM.
Background: Uptake of a labelled nucleoside into DNA is a usual measure of proliferation.

In the next experiment the target is T4, RXRα (Homo sapiens, UniProt P19793).
T4 construct: made in house; host or cells: Baculovirus expression (insect cell extract)
T4 sequence (P19793 1-462): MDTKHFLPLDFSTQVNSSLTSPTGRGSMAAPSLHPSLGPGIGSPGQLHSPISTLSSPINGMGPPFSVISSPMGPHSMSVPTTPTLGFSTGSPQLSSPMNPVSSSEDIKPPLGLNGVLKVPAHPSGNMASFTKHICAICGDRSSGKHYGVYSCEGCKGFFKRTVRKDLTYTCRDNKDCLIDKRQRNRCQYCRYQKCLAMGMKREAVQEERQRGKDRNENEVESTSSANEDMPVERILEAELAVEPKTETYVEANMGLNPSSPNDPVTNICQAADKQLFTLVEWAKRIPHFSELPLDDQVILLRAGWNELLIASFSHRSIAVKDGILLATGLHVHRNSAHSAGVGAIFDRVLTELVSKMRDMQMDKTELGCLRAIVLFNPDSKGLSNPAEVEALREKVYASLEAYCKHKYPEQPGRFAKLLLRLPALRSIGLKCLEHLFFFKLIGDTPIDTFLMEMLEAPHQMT
In words: Ligand binding assay, RXRα. How it is done: as §1, §2, §3, §4

In another experiment the target is T5, RXRβ (Homo sapiens, UniProt P28702).
T5 construct: made in house; host or cells: Baculovirus expression (insect cell extract)
T5 sequence (P28702 1-533): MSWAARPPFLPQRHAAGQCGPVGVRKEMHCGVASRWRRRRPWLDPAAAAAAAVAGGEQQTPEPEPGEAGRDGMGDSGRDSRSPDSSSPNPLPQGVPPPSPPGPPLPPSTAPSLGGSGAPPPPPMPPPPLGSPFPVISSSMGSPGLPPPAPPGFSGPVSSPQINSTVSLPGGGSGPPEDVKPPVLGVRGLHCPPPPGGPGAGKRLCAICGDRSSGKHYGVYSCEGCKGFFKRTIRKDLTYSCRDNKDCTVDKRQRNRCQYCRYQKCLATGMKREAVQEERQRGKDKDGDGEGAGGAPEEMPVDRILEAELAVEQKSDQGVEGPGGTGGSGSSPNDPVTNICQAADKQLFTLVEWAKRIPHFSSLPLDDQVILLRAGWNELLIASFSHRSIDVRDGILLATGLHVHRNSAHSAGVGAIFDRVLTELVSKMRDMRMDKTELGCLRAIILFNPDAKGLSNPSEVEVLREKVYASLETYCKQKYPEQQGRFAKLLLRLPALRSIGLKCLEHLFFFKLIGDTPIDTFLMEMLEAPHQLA
In words: Ligand binding assay, RXRβ. How it is done:
as §1, §2, §3, §4

A further experiment has as its target T6, RXRΓ (Homo sapiens, UniProt P48443).
T6 construct: made in house; host or cells: Baculovirus expression (insect cell extract)
T6 sequence (P48443 1-463): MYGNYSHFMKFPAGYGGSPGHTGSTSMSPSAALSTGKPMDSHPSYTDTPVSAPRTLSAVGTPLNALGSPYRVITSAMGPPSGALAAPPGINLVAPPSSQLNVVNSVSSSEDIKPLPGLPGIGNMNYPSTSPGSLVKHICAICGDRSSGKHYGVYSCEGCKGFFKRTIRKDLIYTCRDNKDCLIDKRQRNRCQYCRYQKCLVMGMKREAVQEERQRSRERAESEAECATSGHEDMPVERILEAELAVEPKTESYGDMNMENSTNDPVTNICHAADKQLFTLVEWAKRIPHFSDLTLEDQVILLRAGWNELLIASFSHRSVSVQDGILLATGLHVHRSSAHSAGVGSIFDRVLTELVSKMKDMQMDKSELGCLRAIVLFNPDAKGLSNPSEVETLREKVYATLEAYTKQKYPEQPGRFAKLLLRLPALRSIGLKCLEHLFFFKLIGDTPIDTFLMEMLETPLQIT
The experiment can be described thus: Ligand binding assay, RXRΓ. How it is done: as §1, §2, §3, §4

By Kd is commonly meant the equilibrium constant for the complex coming apart. A low value points to tighter binding. For the compound `CC(C)(C)C=C1CCC(C)(C)c2ccc(C#Cc3ccc(C(=O)O)cc3)cc21` [AGN 193459, 4-[(5,6-dihydro-5,5-dimethylnaphth-7(6H)-8-(1-2,2-dimethylpropylidene)naphth-2-yl)ethynyl]benzoic acid, reference compound], the Kd on RARα came out at 6 nM; at RARβ, 2 nM; at RARΓ it was 7 nM. Also, the “growth of AML 193 cells at low concentrations” value in experiment [1] was “do not inhibit but rather at these low concentrations even stimulate such cell growth”.
For the compound `CC(C)(C)c1cc(C(=O)Nc2ccc(C(=O)O)c([N+](=O)[O-])c2)cc(C(C)(C)C)n1` [Compound 54], the Kd on RARβ, on RARΓ, at RXRα, at RXRβ and at RXRΓ was over 1000 nM each time.
On RARα, `CC1(C)CCC(C)(C)c2c1cc(C(=O)Nc1ccc(C(=O)O)c(F)c1)c(O)c2Br` [Compound 30] came in with a dissociation constant Kd of under 3 nM.
On to `CC(C)(C)c1cc(C(=O)Nc2cc(F)c(C(=O)O)c(F)c2)cc(C(C)(C)C)n1` [Compound 50], for which the equilibrium dissociation constant (Kd) at RARβ, at RARΓ, at RXRα, on RXRβ and on RXRΓ was over 1000 nM in each case.
`CC1(C)CC=C(C#N)c2cc(C#Cc3ccc(C(=O)O)cc3)ccc21` [AGN 193090, 4-[(8-cyano-5,6-dihydro-5,5-dimethylnaphth-2-yl)ethynyl]benzoic acid, reference compound]: the Kd on RARα turned out to be 109 nM; at RARβ, 34 nM; at RARΓ, 77 nM. The “growth of AML 193 cells at low concentrations” value in experiment [1] is on record as “do not inhibit but rather at these low concentrations even stimulate such cell growth”.
Consider `CC(C)(C)c1cc(C(=O)Nc2cc(F)c(C(=O)O)c(F)c2)cc(C(C)(C)C)c1` [Compound 52], for which the Kd at RARβ, on RARΓ, on RXRα, at RXRβ and at RXRΓ was over 1000 nM in each case.
Regarding “2-Fluoro-4-[(3′,5′-di-t-butyl)phenylcarbamoyl]benzoic acid [Compound 46]”, the Kd on RXRα, at RXRβ and on RXRΓ was over 1000 nM each time.
